{"source": "paper PMC11724075", "about": "“Small-molecule-induced ERBB4 activation to treat heart failure” (Nature Communications, 2025)", "key": {"[1]": {"system": "mouse model of DOX-induced acute cardiac toxicity", "assay": "Acute high-dose DOX-induced cardiotoxicity, cTnI ELISA, wild type mice", "assay_type": "in vivo", "set-up": "In vivo DOX experiment in female wild type mice with EF-1 (cTnI) / In vivo DOX experiment in fmale wild type mice with EF-1 (cTnI): unit not given here", "description": "DOX (20 mg/kg; Pfizer, 4222) was administered intraperitoneally once on day 4 to induce cardiotoxicity. On day 7, mice were euthanized, serum samples were collected via the retrobulbar sinus and hearts were excised.\nSerum samples were centrifuged for 15 min (1000 × g) at 4 °C and analyzed using a mouse cardiac Troponin I Type 3 ELISA kit (Novus Biologicals, NBP3–00456), according to the manufacturer’s instructions. Briefly, a 96-well microplate was coated with an anti-mouse TNNI3/cTnI primary antibody (Capture Antibody Solution). Standard solution or samples (100 μL) were added to the plate and incubated for 90 min at 37 °C. A biotinylated anti-mouse TNNI3/cTnI detection antibody was added, and the plate was incubated for 1 h at 37 °C followed by 3 washes with Wash Buffer. An avidin–horseradish peroxidase conjugate (Detection Antibody Solution) was then added, and the plate was incubated once more for 30 min at 37 °C. After 3 washes with Wash Buffer, Substrate Reagent was added. Following incubation for 15 min at 37 °C, the enzymatic reaction was terminated by the addition of Stop Solution. Sample optical densities at 450 nm were converted to […] concentrations of mouse TNNI3/cTnI using a calibration curve."}, "[2]": {"system": "iAMs", "assay": "Cardiomyocyte hypertrophy assay: CSA of iAMs after AngII, also with PD98059", "assay_type": "cell-based, rat", "description": "iAMs were seeded at a density of 10^4 cells/well in differentiation medium in 24-well plates (Greiner Bio-One, 662160) and differentiated over 9 days (d0 = day of seeding). […] To determine CSA, cells were fixed with 4% paraformaldehyde (PFA, Thermo Fisher Scientific, 043368.9 M) for 30 min at 4 °C. Cells were washed thrice with PBS and permeabilized by incubation with 0.1% Triton X-100 (Merck, 10789704001) for 10 min at RT. iAMs were stained with Alexa Fluor 568 phalloidin (Thermo Fisher Scientific, A12380) in 1% BSA-PBS solution for 1 h at RT. After washing 3 times with PBS, DAPI (Merck, D9542) was added. Images were obtained by fluorescence microscopy (Celena S).\nCSA was quantified using an automated algorithm, custom-made in Python[67]. The mode mD (maximum of the histogram) of DAPI intensities (excluding 0) was determined and binary segmentation of nuclei was created with threshold mD + SDD (with SDD the SD of DAPI intensities). Distinct objects with an area less than 500 pixels and nuclei where the average overlapping iAM signal was less than mdA + 0.5 SDA (with mdA and SDA the median and SD of the Alexa Fluor 568 intensity, respectively) were removed. […]"}, "[3]": {"system": "iCAGCre-Erbb4f/f mice", "assay": "AngII-induced fibrosis in iCAGCre-Erbb4f/f mice injected with corn oil without tamoxifen", "assay_type": "in vivo, mouse", "source_text": "Floxed Erbb4 mice (Erbb4^f/f; C57BL/6N; 129-Erbb4tm1Fej/Mmucd, MMRRC, #010439-UCD) were crossed with CAGGCre-ER^TM mice (Jackson Laboratory, 004682) containing the Tg(CAG-cre/Esr1*)5Amc transgene that expresses Cre recombinase under the control of a chicken beta actin promoter/enhancer coupled to the human cytomegalovirus immediate-early gene enhancer, resulting in expression of tamoxifen-inducible Cre-ERT in most cell types. To induce Cre recombinase-mediated deletion of Erbb4, eleven-week-old female and male iCAGGCre-ER^TM/Erbb4^f/f mice were intraperitoneally injected with tamoxifen (Merck, T5648; 10 mg/kg; in corn oil) daily for 5 consecutive days.\nHearts were fixed in 4% PFA, paraffin-embedded, and cut into 5-µm sections. Images were acquired with an Olympus BX43 microscope (Olympus Stream Motion Software) or a CELENA® S Digital Imaging System and analyzed with ImageJ 2.14.0 software. Collagen distribution was visualized by Masson’s trichrome staining. Cardiac total fibrosis was expressed as the ratio of positively stained fibrotic area (blue) to the total area and perivascular fibrosis as the ratio of fibrotic area to vascular lumen area. Scar size was determined by measuring the scar length over the […]. Hypertrophy and vascularisation were visualized via an isolectin-B4/WGA/DAPI staining. Quantification was performed by a person blinded to the treatment protocol.\nSupplementary Figure 6. Effect of AngII in male WT mice with compound NA-1 and the validation of genotype and phenotype of iCAGCre-Erbb4 f/f mice. […]\nUncropped gel is presented in Supplementary Figure 9. (c) Survival curve depicting the effects of 1000 ng/kg AngII treatment on mouse survival (ctrl = black line; 1000 ng/kg AngII = red line; n=6 male and female mice in Ctrl group and n=15 mice who received 1000 ng/kg AngII treatment). (d) Representative images of Masson’s trichrome staining of AngII-induced myocardial fibrosis in iCAGCre- […]\nand n=10 male and female ice in AngII/Veh group). Scale bar = 500 µm for total fibrosis, scale bar = 50 µm for perivascular fibrosis. […]"}}, "note": "Values joined by “and” are separate entries in the source; they are usually repeats but may differ in a detail not shown here. Identical values can stand only once."}
{"smiles": "O=C(NC1CC1)C(Sc1nc2ccccc2c(=O)n1C1CCCC1)c1ccccc1", "note": "(stereo not drawn) [EF-1]", "values": [{"measurement": "In vivo DOX experiment in female wild type mice with EF-1 (cTnI)", "setting": "[1]; female wild type mice, DOX/EF-1 group, individual animals, Fig. 6b", "result": "8.09 and 3.543 and 6.879 and 1.657 and 7.427 and 2.8057 and 6.224 and 3.861"}, {"measurement": "effect on DOX-induced increase in circulating cTnI plasma levels (in words)", "setting": "[1]; female wild type mice, EF-1 2 mg/kg, 7 days, DOX 20 mg/kg IP day 4", "result": "significantly prevented the DOX-induced increase in circulating cTnI plasma levels"}, {"measurement": "In vivo DOX experiment in fmale wild type mice with EF-1 (cTnI)", "setting": "[1]; fmale wild type mice, DOX/EF-1 group, individual animals, Fig. 6c", "result": "273.659 and 148.181 and 198.844 and 244.235 and 228.218 and 232.739 and 226.672 and 236.453 and 259.198"}, {"measurement": "anti-hypertrophic effect of EF-1 under ERK1/2 pathway inhibition (PD98059) (in words)", "setting": "[2]", "result": "blocked upon inhibition of the ERK1/2 pathway"}, {"measurement": "effect on AngII-induced increase in CSA (in words)", "setting": "[2]; EF-1 4–32 µM", "result": "dose-dependently attenuated"}, {"measurement": "half-life with mouse microsomes", "result": 15, "unit": "min"}, {"measurement": "Perivascular fibrosis male+female in vivo corn oil-treated iCAGCre-Erbb4f/f mice with EF-1", "setting": "[3]; AngII/EF-1, individual animals", "result": "0.8706 and 1.275 and 0.6537 and 2.675 and 0.6132 and 2.541 and 1.901 and 0.8014"}, {"measurement": "Total fibrosis male+female in vivo corn oil-treated iCAGCre-Erbb4f/f mice with EF-1", "setting": "[3]; AngII/EF-1, individual animals", "result": "3.59 and 3.39 and 3.18 and 4.74 and 4.82 and 3.84 and 3.53 and 4.29 and 4.51"}, {"measurement": "inhibitory effects on AngII-induced interstitial and perivascular fibrosis (in words)", "setting": "[3]; iCAGCre-Erbb4f/f mice injected with corn oil without tamoxifen", "result": "preserved"}]}
